Target: Nicotinic acetylcholine receptor (Rattus leucopus, UniProt Q62594)
Sequence (Q62594 whole entry): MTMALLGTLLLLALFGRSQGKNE

## COc1cc2c3cc1Oc1cc(ccc1O)CC1c4c(cc(OC)c(O)c4Oc4ccc(cc4)CC3[N+](C)(C)CC2)CC[N+]1(C)C (stereo unspecified) [CAS_8063-06-7]
  Ki: 3.79 µM

Reference: BindingDB's records for PubMed 9223586 (Georgetown University, 1997)
